Results: ChEMBL document CHEMBL5465560, “Selectivity Literature for EUbOPEN Chemogenomic Library” (2024)
Each block holds one compound with its values, some of them ahead of it.

Tests used:
[1] = molecular target: T1, Serine/threonine-protein kinase Nek1 (Homo sapiens) (UniProt Q96PY6); experiment: Selectivity interaction (Ambit KINOMEscan and KiNATiv profiling in Jurkat cells) EUB0000090b NEK1; type: cell-based; settings: at 1 µM
T1 sequence (whole entry): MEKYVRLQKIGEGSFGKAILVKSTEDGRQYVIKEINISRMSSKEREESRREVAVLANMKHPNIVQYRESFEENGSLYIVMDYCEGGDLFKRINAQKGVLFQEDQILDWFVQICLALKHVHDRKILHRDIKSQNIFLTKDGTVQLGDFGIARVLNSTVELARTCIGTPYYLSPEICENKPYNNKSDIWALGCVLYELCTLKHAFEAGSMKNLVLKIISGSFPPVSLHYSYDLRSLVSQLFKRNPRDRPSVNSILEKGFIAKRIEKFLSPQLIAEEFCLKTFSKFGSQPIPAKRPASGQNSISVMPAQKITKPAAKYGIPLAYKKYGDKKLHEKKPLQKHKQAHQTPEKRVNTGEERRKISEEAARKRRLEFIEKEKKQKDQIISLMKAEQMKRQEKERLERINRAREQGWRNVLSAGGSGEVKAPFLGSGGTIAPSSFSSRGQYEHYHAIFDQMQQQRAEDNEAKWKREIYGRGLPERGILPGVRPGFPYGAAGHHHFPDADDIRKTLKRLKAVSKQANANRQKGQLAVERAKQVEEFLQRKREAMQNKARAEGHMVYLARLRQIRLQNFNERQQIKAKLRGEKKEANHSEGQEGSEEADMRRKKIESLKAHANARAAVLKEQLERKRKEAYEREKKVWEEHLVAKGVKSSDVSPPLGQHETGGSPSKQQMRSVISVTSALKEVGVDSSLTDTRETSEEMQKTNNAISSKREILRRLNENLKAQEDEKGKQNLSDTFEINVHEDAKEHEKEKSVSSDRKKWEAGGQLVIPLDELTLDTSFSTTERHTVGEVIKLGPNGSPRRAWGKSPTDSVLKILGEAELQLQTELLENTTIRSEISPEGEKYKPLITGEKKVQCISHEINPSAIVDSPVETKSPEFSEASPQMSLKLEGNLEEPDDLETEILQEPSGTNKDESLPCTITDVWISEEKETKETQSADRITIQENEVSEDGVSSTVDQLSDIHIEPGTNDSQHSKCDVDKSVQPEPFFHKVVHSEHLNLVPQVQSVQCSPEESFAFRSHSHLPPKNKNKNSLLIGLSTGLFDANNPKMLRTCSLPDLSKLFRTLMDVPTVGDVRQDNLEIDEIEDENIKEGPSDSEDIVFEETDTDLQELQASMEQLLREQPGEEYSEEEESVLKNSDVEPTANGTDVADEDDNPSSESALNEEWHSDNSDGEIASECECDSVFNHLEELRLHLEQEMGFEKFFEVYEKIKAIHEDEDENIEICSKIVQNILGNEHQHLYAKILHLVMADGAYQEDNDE

[2] = molecular target: T2, Protein arginine N-methyltransferase 9 (Homo sapiens, UniProt Q6P2P2); experiment: Selectivity interaction (Scintillation proximity assays) EUB0000230b PRMT9
T2 sequence (Q6P2P2 whole entry): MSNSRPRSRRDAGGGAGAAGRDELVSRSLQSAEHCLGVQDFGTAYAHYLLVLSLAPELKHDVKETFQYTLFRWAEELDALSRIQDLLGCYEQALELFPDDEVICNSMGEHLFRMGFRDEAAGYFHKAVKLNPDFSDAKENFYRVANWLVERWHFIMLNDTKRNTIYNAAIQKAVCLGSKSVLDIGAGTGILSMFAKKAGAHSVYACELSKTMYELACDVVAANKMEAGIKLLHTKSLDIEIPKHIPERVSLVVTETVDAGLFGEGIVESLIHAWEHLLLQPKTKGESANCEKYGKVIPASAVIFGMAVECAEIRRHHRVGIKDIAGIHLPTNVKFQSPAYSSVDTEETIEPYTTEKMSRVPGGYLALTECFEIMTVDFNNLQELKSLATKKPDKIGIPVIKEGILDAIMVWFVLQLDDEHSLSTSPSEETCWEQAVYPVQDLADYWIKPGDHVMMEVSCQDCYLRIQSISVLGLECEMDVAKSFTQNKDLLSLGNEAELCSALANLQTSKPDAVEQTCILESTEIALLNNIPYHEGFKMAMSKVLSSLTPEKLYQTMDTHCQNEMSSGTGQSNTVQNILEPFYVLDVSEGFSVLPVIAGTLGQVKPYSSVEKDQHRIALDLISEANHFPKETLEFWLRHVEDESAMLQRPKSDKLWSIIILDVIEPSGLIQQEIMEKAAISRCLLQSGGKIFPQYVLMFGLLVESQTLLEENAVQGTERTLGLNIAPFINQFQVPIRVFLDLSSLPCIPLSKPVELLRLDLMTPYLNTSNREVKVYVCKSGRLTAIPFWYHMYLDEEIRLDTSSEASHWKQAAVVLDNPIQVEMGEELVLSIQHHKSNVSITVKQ

[3] = molecular target: T3, Serine/threonine-protein kinase Nek2 (Homo sapiens) (UniProt P51955); experiment: Selectivity interaction (KinomeScan (DiscoverX)) EUB0000229b NEK2; settings: at 10 µM
T3 sequence (whole entry): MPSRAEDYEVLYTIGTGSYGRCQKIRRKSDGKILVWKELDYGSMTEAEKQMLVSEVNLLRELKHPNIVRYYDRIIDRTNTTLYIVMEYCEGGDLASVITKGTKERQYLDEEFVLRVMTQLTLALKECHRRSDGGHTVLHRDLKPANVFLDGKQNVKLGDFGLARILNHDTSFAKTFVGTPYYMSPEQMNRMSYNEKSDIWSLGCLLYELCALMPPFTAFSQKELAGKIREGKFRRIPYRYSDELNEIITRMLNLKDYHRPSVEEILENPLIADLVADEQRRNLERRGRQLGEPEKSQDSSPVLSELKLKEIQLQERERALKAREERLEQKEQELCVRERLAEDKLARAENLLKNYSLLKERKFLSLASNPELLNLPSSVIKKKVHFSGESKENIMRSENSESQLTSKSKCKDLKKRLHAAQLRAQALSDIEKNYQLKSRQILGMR

[4] = molecular target: T4, Mitogen-activated protein kinase 13 (Homo sapiens) (UniProt O15264); experiment: Selectivity interaction (ActivX KiNativ screen (ex vivo kinase selectivity in human PBMCs)) EUB0001619a MAPK13; type: cell-based; settings: PBMC, at 1 µM
T4 sequence (whole entry): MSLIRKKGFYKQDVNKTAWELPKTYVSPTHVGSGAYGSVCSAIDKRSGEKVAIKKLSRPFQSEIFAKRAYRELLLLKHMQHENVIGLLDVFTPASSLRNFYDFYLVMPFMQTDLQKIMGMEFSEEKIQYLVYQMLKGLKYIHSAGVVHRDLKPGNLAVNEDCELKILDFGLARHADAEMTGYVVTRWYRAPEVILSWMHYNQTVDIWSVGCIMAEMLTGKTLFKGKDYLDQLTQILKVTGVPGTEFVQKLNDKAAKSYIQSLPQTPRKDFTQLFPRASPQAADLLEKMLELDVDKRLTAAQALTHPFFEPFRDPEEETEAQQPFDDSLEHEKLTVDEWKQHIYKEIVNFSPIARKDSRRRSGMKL

SMILES: CN(C)C/C=C/C(=O)Nc1ccc(C(=O)N2CCCC(Nc3ncc(Cl)c(-c4c[nH]c5ccccc45)n3)C2)cc1 (centres undefined)
% of control [1]: 100%

IC50 [2]: > 10 µM
SMILES: CNCCN1CCC(c2cc(CN(C)C(=O)c3cccc(Oc4ccccc4)c3)ccn2)CC1

SMILES: COc1cc(N(C)c2ccnc3ccc(C(F)(F)F)cc23)cc(OC)c1OC
% binding [3]: 92%

SMILES: N#Cc1cccc(-c2c[nH]c3ncnc(N4CCOCC4)c23)c1
% of inhibition [4]: -6%
